Data taken from patent publication US9062095B2, “Mutant double cyclized receptor peptides inhibiting β1-adrenoceptor antibodies” (JULIUS-MAXIMILIANS-UNIVERSTITAT-WURZBURG, priority 2007, dated 2015).
Positions of bridges follow the written chain, without caps; N, C: chain ends. Non-standard residues stand in square brackets, D forms with d.

Tests used:
anti-β1-ECII antibodies = assay: ELISA-competition assay: peptide preincubated with sera/IgG of immunized antibody-positive rats, linear 25AA Cys/Cys-peptide as antigen; assay type: binding, rat; set-up: blocking capacity (% of blocked versus non-blocked ELISA-reactivity): concentration or dose not given beside the values; details: for blocking capacity (% of blocked versus non-blocked ELISA-reactivity): IgG from n=78 immunized antibody-positive rats, preincubation 12 h, mutants with D-Glu ring closure (FIG. 7); for blocking capacity (% of blocked versus non-blocked ELISA-reactivity) / blocking efficiency (% of blocked versus non-blocked ELISA reactivity) / blocking capacity (% of blocked versus non-blocked ELISA reactivity): ±SEM; for blocking efficiency (% of blocked versus non-blocked ELISA reactivity): type1 sera (93%, n=64 of 69), FIG. 9 upper panel; for blocking capacity (% of blocked versus non-blocked ELISA reactivity): type 2 sera (7%, n=5 of 69), FIG. 9 lower panel; for decrease in circulating free anti-beta1-ECII antibodies: n=6 sera (FIG. 11); for ability to significantly block antibody-binding to the β1-ECII-antigen: IgG-fractions from 12 rats, 18AA mutants with D-Glu ring closure (FIG. 4); for fraction of rat sera blocked by the peptide: n=82 sera, D-Glu ring closure (FIG. 8), Cys/Ser = blocked by it alone, Ser/Cys = sera blocked by both mutants
Experimental: FIG. 9 is a diagram composed of two major-(upper and lower) panels resuming the blocking effect of both 25AA- and 18AA-cyclopeptide mutants having a Gln closure site, as well as 18AA cyclopeptide mutants having a D-Glu closure site after preincubation (12 h, 4° C., rotating incubation) with sera isolated from 69 different immunized antibody-positive rats in an ELISA-competition assay using the 3 Cys-containing linear 25AA Cys/Cys-peptide as an antigen. The upper panel depicts rat sera preferentially reacting with the Cys/Ser mutated cyclopeptides (type1 reaction, n=64), separated in cyc25AA(Gln)-peptides (left) and cyc18AA(Gln and D-Glu)-peptides (right). The lower panel depicts the rat sera reacting with both the Cys/Ser and the Ser/Cys mutated cyclopeptides (type2 reaction, n=5), again separated in the results obtained with cyc25AA(Gln)-peptides (left) and cyc18AA(Gln and D-Glu)-peptides (right).
FIG. 11 is a diagram resuming the dose-dependent (x-axis, abscissa: fold molar excess of specific peptides) blocking capacity of various linear and cyclic beta1-ECII-peptides given in % of the unblocked antibody-titer (y-axis, ordinate), including 25AA Cys/Cys linear peptides (black squares), 25AA Cys/Ser cyclopeptide mutants (white squares), 18AA Cys/Cys cyclo-peptides (black diamonds), 18AA Cys/Ser cyclopeptide mutants (white diamonds), and 18AA Cys/Ser linear peptide mutants (vertically hatched diamonds) in an ELISA competition assay performed with sera from n=6 randomly chosen immunized antibody-positive rats.
FIGS. 27A and B depict the in vitro blocking (=neutralization) capacity of various cysteine-containing cyclopeptide variants of the second extracellular loop (ECII) of the human beta1-adrenergic receptor, determined by testing n=6 individual sera (27A) of immunized beta1-ECII-antibody-positive rats after over-night incubation with the indicated cyclopeptides (12-14 h, 4° C.) by ELISA. Columns in 27A represent the receptor-antibody blocking efficiency of the indicated cyclopeptides in % of the antibody-(ELISA-)signals obtained with unblocked antibody-positive rat sera. Columns in 27B represent the mean blocking efficiency for each cyclopeptide, error bars indicate ±SEM.
The blocking capacity of β1-ECII-18AA cyclopeptide mutants (Cys13-Ser14 or Ser13-Cys14 mutation having an additional D-Glu-Gln exchange, e.g. at the ring closure site) was compared with the 3 Cys-containing 25AA or 18AA Cys/Cys cyclopeptides after preincubation (12 h, 4° C., rotating incubation over-night) of different numbers of sera from immunized antibody-positive rats in an ELISA-competition assay using the 3 Cys-containing linear 25AA Cys/Cys-peptide as an antigen. FIGS. 4, 5, and 7-10 show the results from measurements performed with sera of n=12 up to n=82 immunized antibody-positive rats using different cyclopeptides of the present invention.

[1] = tested on: anti-beta1-ECII antibody-secreting cells (ASC); assay: ELISPOT-assay with B-cells from bone marrow or spleen of prophylactically treated rats; assay type: in vivo, rat; details: prophylactically treated versus untreated immunized rats, n=3-4 (FIG. 13)
Experimental: Cys/Ser, horizontally hatched columns). For the assays, ELIspot plates were coated overnight with the specific antigen (GST/beta1-ECII-FP) in 0.05 mol/1 Tris buffer, pH 9.4.; then the plates were washed 3 times and blocked with BSA for 3 hours at 37° C. Subsequently, the plates were incubated overnight at 37° C. with B-cells from either spleen or bone marrow (cultured in RPMI 1640/X-VIVO-15 medium supplemented with 10% fetal calf serum (FCS)) with 1×10^6 to 1×10^3 cells per well. After 12 hours the B-cells were discarded and the plates with the B-cell secreted IgG bound were washed several times (PBS/0.5° A) Tween) before the addition of alkaline phos-phatase conjugated secondary anti-rat IgG (0.3 μg/ml) to detect bound rat IgG. Then the plates were incubated for another 3 hours at 37° C., washed several times with PBS/0.5% Tween, and developed using LMP/BICP 5:1 (1 ml per well; “LMP” means low melting agarose, and “BICP” means 5-bromo-4-chloro-3-indolyl phosphate p-toluidine salt, a blue-colored dye) allowing for a quantification of the blue spots obtained, with each spot representing an antigen-specific IgG secreting spleen or bone-marrow cell.
This finding was confirmed by ELIspot analysis of bone marrow and spleen cell preparations of selected cyclopeptide-treated versus untreated immunized rats (n=3).

[2] = tested on: beta1-receptor antibodies; assay: in vivo prevention study: five prophylactic peptide applications, serum antibody-titers by ELISA; set-up: species or system rat; details: 1.0 mg/kg body weight i.v., 4-weekly, prevention protocol (FIG. 12)
Experimental: FIG. 12 is a diagram resuming the in vivo blocking capacity of in total five (prophylatic) applications of various linear and cyclic beta1-ECII-peptides, started 3 months after the first immunization (and two subsequent beta1-ECII/GST-antigen-boosts, corresponding to a prevention protocol). Serum-titers of the beta1-receptor antibodies were determined before and 18-20 h after each peptide injection (abscissa, time in months) and are given in % of the corresponding antibody-titers of immunized untreated rats (y-axis, ordinate). The injected peptides were: 25AA Cys/Cys linear peptide (black squares), […] (white squares), 18AA Cys/Cys cyclopeptide (black diamond), 18AA Cys/Ser cyclopeptide mutant (white diamonds), and the 18AA Cys/Ser linear peptide mutant (vertically hatched diamonds). […] Black circles indicate antibody-titers of untreated regularly (every 4 weeks) immunized animals serving as reference, set at 100%.
The in-vivo blocking effects of both 25AA and 18AA Cys/Ser mutant cyclopeptides (with a Gln closure site), the 18AA Ser/Cys mutant cyclopeptide, and a mutated linear 18AA Cys/Ser peptide were analyzed after intravenous (i.v.) injection of 1.0 mg/kg body weight (Bw) of each construct into freshly immunized antibody-positive rats (i.e., use of cyclo-peptides in a kind of “prevention” study), with a first cyclopeptide-application 3 months after the initial immunization (and two subsequent boost at months 2 and 3). In total, five prophylactic applications of the various constructs were given at 4-weekly intervals, always two weeks after the monthly continued antigen boost. Sera were drawn 18-20 hours after i.v. injection and assayed for reactivity by ELISA using the 3 Cys-containing linear 25AA Cys/Cys-peptide as an antigen (FIG. 12).

[3] = tested on: antibody-induced cellular cAMP-production of HEK 293-β1 cells (β1-receptor-mediated signalling); assay: functional cAMP-assay by fluorescence resonance energy transfer (FRET); assay type: cell-based, human; details: anti-β1-ECII IgG of a representative rat, preincubation 12 h, 4° C. (FIG. 6)
Experimental: FIG. 6 is a diagram depicting the blocking capacity of β1-ECII-18AA cyclopeptide mutants having a D-Glu ring closure on β1-receptor-mediated signalling (functional cAMP-assay) using an approach by fluorescence resonance energy transfer (FRET). The effect of the preincubation (12 h, 4° C., rotating incubator) of anti-β1-ECII IgG antibodies of a representative rat (serum) (FIG. 4, rat number 4) with β1-ECII-18AA-cyclopeptide mutants (Cys/Ser mutation, dark blue (3); Ser/Cys mutation, light blue (4)) was compared with the effect of a 3 Cys-containing 25AA Cys/Cys cyclopeptide (red (2)) or the result obtained with anti-β1-ECII IgG antibodies in the absence of blocking peptides (black (1)). The y-axis represents the normalized YFP/CFP-ratio of the registered FRET emission signals, the x-axis corresponds to the registration time given in seconds (s).
The blocking capacity of β1-ECII 25AA or 18AA cyclopeptide mutants (having a D-Glu/Gln at the ring closure site or not) on β1-receptor-mediated signalling (functional cAMP-assay) was assayed using an approach by fluorescence resonance energy transfer (FRET) (FIG. 6).
The effect of the pre-incubation (12 h, 4° C., rotating incubator) of anti-β1-ECII IgG antibodies of a representative rat with β1-ECII-18AA cyclopeptide mutants (Cys/Ser or Ser/Cys mutations, respectively) was compared with the inhibitory effect of a 3 Cys-containing 25AA Cys/Cys cyclopeptide or with the effect of anti-β1-ECII IgG antibodies not incubated with blocking peptides. The normalized YFP/CFP-ratio of the registered FRET emission signals served to quantify the effect of the cyclopeptide mutants of the present invention in terms of blockade (in percent) of antibody-induced cellular cAMP-production of transiently Epac1-transfected stably β1-AR expressing human embryonic kidney cells (HEK 293-β1 cells). The x-axis in FIG. 6 corresponds to the registration time given in seconds (s).

| ability to significantly block antibody-binding to the β1-ECII-antigen (anti-β1-ECII antibodies) | blocking of receptor antibodies versus Ser/Cys counterpart or linear 25AA Cys/Cys peptide (anti-β1-ECII antibodies; dose-titration, two to eight-fold molar excess, one representative serum (FIG. 5)) | Substance | blocking capacity (% of blocked versus non-blocked ELISA-reactivity) (anti-β1-ECII antibodies; 4° C.) [%] | blocking-efficiency versus unblocked sera (anti-β1-ECII antibodies; n=6 sera, incubation 12-14 h, 4° C., mean ±SEM (FIG. 27)) [%] | blocking efficiency (% of blocked versus non-blocked ELISA reactivity) (anti-β1-ECII antibodies) [%] | blocking capacity (% of blocked versus non-blocked ELISA reactivity) (anti-β1-ECII antibodies) [%] | number of specific anti-beta1-ECII antibody-secreting cells (ASC) in spleen and bone marrow [1] | antibody-titer decrease after 5 injections, compared with untreated immunized animals [2] [%] | decrease in circulating free anti-beta1-ECII antibodies (anti-β1-ECII antibodies; 8-fold molar excess of peptide) [%] | decrease in circulating free anti-beta1-ECII antibodies (anti-β1-ECII antibodies; 20-fold molar excess of peptide) [%] | decrease in circulating free anti-beta1-ECII antibodies (anti-β1-ECII antibodies; 80-fold molar excess of peptide) | inhibition of functional antibody-effects (blocking intracellular cAMP-increases) [3] | blocking effect compared with the 3 Cys-containing β1-ECII-18AA Cys/Cys cyclopeptide (anti-β1-ECII antibodies; IgG-fractions from 12 rats (FIG. 4)) | fraction of rat sera blocked by the peptide (anti-β1-ECII antibodies; listed as ECII-18AA Cys/Ser mutant) [%] | fraction of rat sera blocked by the peptide (anti-β1-ECII antibodies; listed as β1-ECII-18AA Cys/Ser mutated cyclopeptide (D-Glu ring closure)) | fraction of rat sera blocked by the peptide (anti-β1-ECII antibodies; listed as 18AA Ser/Cys-mutants) | fraction of rat sera blocked by the peptide (anti-β1-ECII antibodies; listed as cyclic ECII-18AA Ser/Cys mutants) [%] |
| --- | --- | --- | --- | --- | --- | --- | --- | --- | --- | --- | --- | --- | --- | --- | --- | --- | --- |
|  |  | 25AA Cys/Cys cyclopeptides: 3 Cys-containing β1-ECII-25AA Cys/Cys cyclopeptide (β1-ECII-CP of WO 2006/103101) (cyclo(ARAESDEARRCYNDPKCCDFVTNRQ); disulfide (positions not given here)) [reference compound] | 67±2 | 73.4±5.0 | 65±2 | 72±5 | significant decrease | 87.7±2 |  |  |  |  |  |  |  |  |  |
|  |  | Ala-Asp-Glu-Ala-Arg-Arg-Cys-Tyr-Asn-Asp-Pro-Lys-Cys-Ser-Asp-Phe-Val-Gln (cyclo(ADEARRCYNDPKCSDFVQ); disulfide 7-13 (inferred)) [linear 18AA Cys/Ser peptides, reference compound] |  |  |  |  | no effect | 4.5±11 | 24 | 35 | about 50% |  |  |  |  |  |  |
|  |  | cyclo(Ala-Arg-Ala-Glu-Ser-Asp-Glu-Ala-Arg-Arg-Cys-Tyr-Asn-Asp-Pro-Lys-Ser-Cys-Asp-Phe-Val-Thr-Asn-Arg-Gln) (cyclo(ARAESDEARRCYNDPKSCDFVTNRQ); disulfide 11-18 (inferred)) [25AA Ser/Cys] | 6±2 |  | 6±2 | 37±7 |  |  |  |  |  | almost no inhibitory effect |  |  |  |  |  |
| able to significantly block | consistently largely superior | cyclo(Ala-Asp-Glu-Ala-Arg-Arg-Cys-Tyr-Asn-Asp-Pro-Lys-Cys-Ser-Asp-Phe-Val-DGlu) (cyclo(ADEARRCYNDPKCSDFV[dE]); disulfide 7-13 (inferred)) | 69±2 |  | 69±2 | 47±5 |  |  |  |  |  | largely superior to its Ser/Cys counterpart, and even slightly more effective than a 3 Cys-containing 25AA Cys/Cys cyclopeptide | comparable or (in more than half of the sera analyzed n=8/12) was even more effective | > 95 | About 95% |  |  |
| not |  | cyclo(Ala-Asp-Glu-Ala-Arg-Arg-Cys-Tyr-Asn-Asp-Pro-Lys-Ser-Cys-Asp-Phe-Val-DGlu) (cyclo(ADEARRCYNDPKSCDFV[dE]); disulfide 7-14 (inferred)) [18AA Ser/Cys with D-Glu-closure] | 1±2 |  | 1±2 | 33±5 |  |  |  |  |  | almost no inhibitory effect |  |  |  | about 5% | < 5 |
